Laboratory results: patent publication US7996068B2, “Surgical method and apparatus for identification of fluorescence” (The Board of Trustees of the Leland Stanford Junior …, priority 2007, dated 2011)

Tests used:
[1] = human, cited from earlier work
[2] = human, in vivo
Source text: In some embodiments, intravenous fluorescein can be used as the fluorescent agent.

concentration of fluorescein in urine [2]: about 0.1 mg/ml | concentration of fluorescein in urine relative to concentration in the blood [2]: about 5 × | rate of drug excreted into the ureters [2]: 0.05 mg/min
SMILES: O=C1OC2(c3ccc(O)cc3Oc3cc(O)ccc32)c2ccccc21 [fluorescein]
fraction of dose metabolized ([1]; 14 mg/kg dose, IV, within 1 hour of administration): 80% | time the urine remains slightly fluorescent post dose ([1]; post dose): 24 to 36 h | volume of distribution [1]: 0.5 L/kg
